Results on three molecules are retold here after PMC9328652, “A novel class of fast‐acting antimalarial agents: Substituted 15‐membered azalides” (British Journal of Pharmacology, 2020).

One data set deals with human erythrocytes. Description: Accumulation and retention in human erythrocytes. The class given is in vitro ADME. To be noted: after washout. The protocol:
The human biological samples were sourced ethically, and their research use was in accord with the terms of the informed consents under an IRB/EC approved protocol. Human erythrocytes were isolated from fresh whole blood. Blood cells were removed from the plasma by centrifugation at 1,650 g and 4°C for 15 min. The pellet was re‐suspended in saline and centrifuged at 3,000 g and at room temperature for 10 min. Supernatant and the upper part of pellet containing leukocytes were discarded. The procedure was repeated three to four times until there were no traces of leukocytes. The quality of erythrocyte isolation was determined on Sysmex SF‐3000 haematological analyser. To measure compound accumulation in cells, erythrocytes (2 × 10^9) were re‐suspended in 3‐ml RPMI 1640 (Gibco, Invitrogen) medium containing 20 μM of tested compounds and incubated at 37°C for 3 or 24 h. Cells were subsequently washed twice in ice‐cold PBS (Sigma) followed by centrifugation at 3,000 g and 4°C for 10 min. The cells were lysed by freezing in 0.5% Triton X‐100 (Sigma) in deionized water. […] Concentrations in lysates were determined by LC–MS/MS. […] To determine intracellular concentration, measured concentration in lysates was normalized to the volume of erythrocyte pellet in samples.

Data set [1] concerns Plasmodium falciparum 3D7A (sensitive). Further details: method as in Pesic et al. ([2012]). Conditions: 72 h of incubation; ref Pesic et al. ([2012]); cited from earlier work.
In data set [2] the test system is Plasmodium falciparum W2 (chloroquine/pyrimethamine resistant). Further details: method as in Pesic et al. ([2012]). Conditions: 72 h of incubation; ref Pesic et al. ([2012]); cited from earlier work.
The test system of data set [3] is normal human bronchial epithelium (NHBE). Description: Accumulation and retention in human primary cells, NHBE. The class given is in vitro ADME. Conditions: mean (SD). The protocol:
(§1) Accumulation and retention in human primary cells was determined as described in detail previously (Stepanic et al., [2011]). Briefly, normal human bronchial epithelial cells (NHBE, CC‐2541, Lonza), normal human lung fibroblasts (NHLF, CC‐2512, Lonza), and bronchial smooth muscle cells (BSMC, CC‐2576, Lonza) were cultivated according to the protocols of the suppliers. Human polymorphonuclear cells (PMN) and monocytes from healthy volunteers were isolated from buffy coats. Monocytes were isolated by negative selection on magnetic separator. Monocyte‐derived macrophages (MDM) were obtained by cultivating monocytes with 5 ng·ml^−1 rhGMCSF for 10 days. To determine compound accumulation cells were incubated with 3–10 μM of compounds in their corresponding culture medium for 3 h at 37°C in 5% CO2, washed, and lysed. To measure cellular retention of compounds, after being washed, drug‐loaded cells were incubated in fresh medium for 3 h, washed, and lysed. Compound concentrations were determined by HPLC–MS/MS analysis and expressed as % of azithromycin measurements.

The test system of data set [4] is monocyte derived macrophages (MDM). Nature of the data set: Accumulation and retention in human primary cells, MDM. It counts as in vitro ADME. Conditions: mean (SD). The protocol: as §1
Data set [5] relates to normal human lung fibroblasts (NHLF). Nature of the data set: Accumulation and retention in human primary cells, NHLF. The class given is in vitro ADME. To be noted: mean (SD). As to the method: as §1
The test system of data set [6] is bronchial smooth muscle cells (BSMC). Nature of the data set: Accumulation and retention in human primary cells, BSMC. The class given is in vitro ADME. To be noted: mean (SD). The protocol:
as §1

For data set [7], the system named is Polymorphonuclear leukocytes (PMN). Description: Accumulation and retention in human primary cells, PMN. The class given is in vitro ADME. To be noted: mean (SD). As to the method: as §1
A short description of data set [8]: Pharmacokinetic studies in rats. It counts as in vivo, Sprague–Dawley rats. Conditions: Rat; for half-life / clearance / Vd / bioavailability: male, Sprague-Dawley, whole blood; for half-life: intravenous; for clearance / Vd: iv; for clearance: blood; for Vd: read-out: Vss; for bioavailability: po. The protocol:
For the in vivo pharmacokinetic study, compound 1 was dosed i.v. at 5 mg·kg^−1 (5 ml·kg^−1 dosing volume) and p.o. at a dose of 25 mg·kg^−1 (10 ml·kg^−1) to male Sprague–Dawley rats (Charles River, France), weighing ~350 g. Compounds 2 and 3 were dosed i.v. at 2 mg·kg^−1 (5 ml·kg^−1 dosing volume) and p.o. at a dose of 10 mg·kg^−1 (10 ml·kg^−1). Rats were fasted for 6–12 h (overnight fasting) prior oral administration. For serial blood sampling, rats (n = 3) dosed with an i.v. bolus of compound had blood collected at the following time points after dosing: 5, 10, 20 40, 60, 120, 240, 480, 1,440, and 1,800 min. Rats (n = 3) dosed orally had blood collected at the following time points after dosing: 15, 30, 60, 120, 240, 360, 480, 1,440, and 1,800 min.
Dosing solutions were prepared in 100% saline both for i.v. and p.o. After both routes of administration, blood samples were collected from the tail vein up to 30 h, haemolysed, and frozen until analysis. […] Subsequently, samples were assayed as described for mouse PK.

The structures appear in SMILES notation. Where two headings read alike, the source gives them in different places.

The term IC50 denotes the concentration at which inhibition is half-maximal. For `CC[C@H]1OC(=O)[C@H](C)[C@@H](O[C@H]2C[C@@](C)(OC)[C@@H](O)[C@H](C)O2)[C@H](C)[C@@H](O[C@@H]2O[C@H](C)C[C@H](N(C)C)[C@H]2O)[C@](C)(O)C[C@@H](C)CN(C)[C@H](C)[C@@H](O)[C@]1(C)O` [Azithromycin, reference compound], in the data set with human erythrocytes, the “initially accumulated amount retained in the erythrocytes” value came to 10%. Moreover, the IC50 in data set [1] was 11.5 µM; in [2], 2.68 µM.
What is called half-life is the time in which the quantity being followed falls by half. What is called clearance is the volume of plasma or blood freed of the substance per unit of time. By bioavailability is commonly meant the share of a dose that reaches the circulation, judged against a reference dose that is usually intravenous. For `CC[C@H]1OC(=O)[C@H](C)[C@@H](O[C@H]2C[C@@](C)(OC)[C@@H](O)[C@H](C)O2)[C@H](C)[C@@H](O[C@@H]2O[C@H](C)C[C@H](N(C)C)[C@H]2O)[C@](C)(O)C[C@@H](C)CN(CCCNc2ccnc3cc(Cl)ccc23)[C@H](C)[C@@H](O)[C@]1(C)O` [Compound 1], the accumulation in [3] (3 h) is 162 (3) % azithromycin; in [4] (3 h), 118 (21) % azithromycin; in data set [5] (3 h) it was 100 (11) % azithromycin; in data set [6] (3 h), 148 (77) % azithromycin; in [7] (3 h) it was 127 (36) % azithromycin. Further, the retention in [3] (3 h in fresh medium) is 123 (11) % azithromycin; in [4] (3 h in fresh medium), 94 (0) % azithromycin; in data set [5] (3 h in fresh medium) it was 85 (3) % azithromycin; in data set [6] (3 h in fresh medium), 118 (19) % azithromycin; in [7] (3 h in fresh medium), 101 (19) % azithromycin. Besides, the DNAUCPO in data set [8] (p.o. 25 mg·kg^−1, mean (SD)) is on record as 169 (21) ng*h·ml^−1·mg^−1·kg^−1. Also, in [8] (i.v. 5 mg·kg^−1 / p.o. 25 mg·kg^−1, mean (SD)), the half-life was 23.3 h. This molecule returned a clearance in data set [8] (i.v. 5 mg·kg^−1, mean (SD)) of 2.4 mL/min/kg. For the same molecule, the Vd in [8] (i.v. 5 mg·kg^−1, mean (SD)) was determined as 3.8 L/kg. Further, in data set [8] (i.v. 5 mg·kg^−1, p.o. 25 mg·kg^−1, mean (SD)), the bioavailability came to 2.3%.
For the molecule `CC[C@H]1OC(=O)[C@H](C)[C@@H](O)[C@H](C)[C@@H](O[C@@H]2O[C@H](C)C[C@H](N(C)C)[C@H]2OCCCNc2ccnc3ccccc23)[C@](C)(O)C[C@@H](C)CN[C@H](C)[C@@H](O)[C@]1(C)O` [Compound 3], in data set [8] (oral gavage 10 mg·kg^−1, mean (SD)), the DNAUCPO is listed as 36.2 (29) ng*h·ml^−1·mg^−1·kg^−1. Further, the half-life in data set [8] (i.v. 2 mg·kg^−1 / p.o. 10 mg·kg^−1, mean (SD)) was 18.8 h. For the same molecule, in data set [8] (i.v. 2 mg·kg^−1, mean (SD)), the clearance was found to be 4 mL/min/kg and the Vd stood at 6.3 L/kg. The molecule also yielded a bioavailability in data set [8] (i.v. 2 mg·kg^−1, p.o. 10 mg·kg^−1, mean (SD)) of 1%.
